From patent publication US20090311217A1, “3-SUBSTITUTED-1H-INDOLE COMPOUNDS, THEIR USE AS MTOR KINASE AND PI3 KINASE INHIBITORS, AND THEIR SYNTHESES” (priority 2008, published 2009)

Key:
Type in all cases: biochemical
human TOR = target: T1, human TOR (Homo sapiens, UniProt P42345); assay: mTOR enzyme assay (DELFIA, His6-S6K substrate); settings: read-out: mTOR Kinase Avg. IC50
T1 construct: FLAG

PI3K-alpha = PI3K-alpha (Homo sapiens, UniProt P42336); assay: PI3K-alpha fluorescence polarization assay; settings: read-out: PI3Kα Avg. IC50
Sequence of PI3K-alpha (P42336 whole entry, species assumed): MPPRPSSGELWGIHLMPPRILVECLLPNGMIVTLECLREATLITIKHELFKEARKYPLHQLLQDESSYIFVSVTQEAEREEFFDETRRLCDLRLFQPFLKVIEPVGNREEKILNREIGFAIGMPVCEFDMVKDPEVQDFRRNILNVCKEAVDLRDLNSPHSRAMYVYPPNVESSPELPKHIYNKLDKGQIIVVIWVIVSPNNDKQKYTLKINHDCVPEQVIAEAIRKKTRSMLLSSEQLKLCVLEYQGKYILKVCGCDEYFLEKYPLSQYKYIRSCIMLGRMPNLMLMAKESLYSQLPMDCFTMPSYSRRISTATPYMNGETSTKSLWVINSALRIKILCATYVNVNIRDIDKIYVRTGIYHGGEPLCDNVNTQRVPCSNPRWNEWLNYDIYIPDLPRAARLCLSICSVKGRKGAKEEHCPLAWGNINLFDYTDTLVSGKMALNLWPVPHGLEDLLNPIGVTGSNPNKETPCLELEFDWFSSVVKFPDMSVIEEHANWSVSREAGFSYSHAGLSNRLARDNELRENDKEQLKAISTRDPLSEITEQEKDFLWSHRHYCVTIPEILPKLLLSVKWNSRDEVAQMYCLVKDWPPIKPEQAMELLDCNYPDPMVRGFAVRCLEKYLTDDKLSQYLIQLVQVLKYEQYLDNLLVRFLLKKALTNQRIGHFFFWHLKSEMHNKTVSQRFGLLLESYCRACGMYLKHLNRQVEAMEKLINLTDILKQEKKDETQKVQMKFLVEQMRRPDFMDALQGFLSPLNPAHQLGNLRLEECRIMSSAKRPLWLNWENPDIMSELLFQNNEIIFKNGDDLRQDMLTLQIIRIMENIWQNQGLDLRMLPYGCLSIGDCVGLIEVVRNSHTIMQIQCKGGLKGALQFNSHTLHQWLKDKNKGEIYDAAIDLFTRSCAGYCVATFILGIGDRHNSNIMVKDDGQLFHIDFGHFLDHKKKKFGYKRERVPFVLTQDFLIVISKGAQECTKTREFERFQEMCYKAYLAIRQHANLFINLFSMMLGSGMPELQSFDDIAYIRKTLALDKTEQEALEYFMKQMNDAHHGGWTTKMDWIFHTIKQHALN
Sequence of PI3K-alpha (P27986 whole entry partner, species assumed): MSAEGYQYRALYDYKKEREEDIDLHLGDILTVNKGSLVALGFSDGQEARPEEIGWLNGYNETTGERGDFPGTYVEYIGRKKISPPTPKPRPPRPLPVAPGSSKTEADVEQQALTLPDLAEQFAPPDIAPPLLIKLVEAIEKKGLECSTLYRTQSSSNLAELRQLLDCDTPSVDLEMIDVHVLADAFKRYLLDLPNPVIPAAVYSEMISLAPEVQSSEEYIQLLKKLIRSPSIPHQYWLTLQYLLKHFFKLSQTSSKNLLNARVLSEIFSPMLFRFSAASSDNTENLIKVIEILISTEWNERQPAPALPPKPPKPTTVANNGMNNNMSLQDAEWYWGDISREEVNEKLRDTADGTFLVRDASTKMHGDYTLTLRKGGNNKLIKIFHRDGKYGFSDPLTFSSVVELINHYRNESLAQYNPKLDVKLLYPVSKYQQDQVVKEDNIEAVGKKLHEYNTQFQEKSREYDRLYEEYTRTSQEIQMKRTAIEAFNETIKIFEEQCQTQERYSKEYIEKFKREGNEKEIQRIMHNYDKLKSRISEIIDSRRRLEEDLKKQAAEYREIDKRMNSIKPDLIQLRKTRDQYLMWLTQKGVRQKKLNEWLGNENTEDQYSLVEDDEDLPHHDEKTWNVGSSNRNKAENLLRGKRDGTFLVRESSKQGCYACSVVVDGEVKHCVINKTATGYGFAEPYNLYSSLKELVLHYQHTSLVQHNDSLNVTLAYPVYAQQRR

PI3K-gamma = PI3K-gamma (Homo sapiens, UniProt P48736); assay: PI3K-gamma fluorescence polarization assay; settings: PI3Kγ Avg. IC50
Sequence of PI3K-gamma (P48736 whole entry, species assumed, the tested form may be a part): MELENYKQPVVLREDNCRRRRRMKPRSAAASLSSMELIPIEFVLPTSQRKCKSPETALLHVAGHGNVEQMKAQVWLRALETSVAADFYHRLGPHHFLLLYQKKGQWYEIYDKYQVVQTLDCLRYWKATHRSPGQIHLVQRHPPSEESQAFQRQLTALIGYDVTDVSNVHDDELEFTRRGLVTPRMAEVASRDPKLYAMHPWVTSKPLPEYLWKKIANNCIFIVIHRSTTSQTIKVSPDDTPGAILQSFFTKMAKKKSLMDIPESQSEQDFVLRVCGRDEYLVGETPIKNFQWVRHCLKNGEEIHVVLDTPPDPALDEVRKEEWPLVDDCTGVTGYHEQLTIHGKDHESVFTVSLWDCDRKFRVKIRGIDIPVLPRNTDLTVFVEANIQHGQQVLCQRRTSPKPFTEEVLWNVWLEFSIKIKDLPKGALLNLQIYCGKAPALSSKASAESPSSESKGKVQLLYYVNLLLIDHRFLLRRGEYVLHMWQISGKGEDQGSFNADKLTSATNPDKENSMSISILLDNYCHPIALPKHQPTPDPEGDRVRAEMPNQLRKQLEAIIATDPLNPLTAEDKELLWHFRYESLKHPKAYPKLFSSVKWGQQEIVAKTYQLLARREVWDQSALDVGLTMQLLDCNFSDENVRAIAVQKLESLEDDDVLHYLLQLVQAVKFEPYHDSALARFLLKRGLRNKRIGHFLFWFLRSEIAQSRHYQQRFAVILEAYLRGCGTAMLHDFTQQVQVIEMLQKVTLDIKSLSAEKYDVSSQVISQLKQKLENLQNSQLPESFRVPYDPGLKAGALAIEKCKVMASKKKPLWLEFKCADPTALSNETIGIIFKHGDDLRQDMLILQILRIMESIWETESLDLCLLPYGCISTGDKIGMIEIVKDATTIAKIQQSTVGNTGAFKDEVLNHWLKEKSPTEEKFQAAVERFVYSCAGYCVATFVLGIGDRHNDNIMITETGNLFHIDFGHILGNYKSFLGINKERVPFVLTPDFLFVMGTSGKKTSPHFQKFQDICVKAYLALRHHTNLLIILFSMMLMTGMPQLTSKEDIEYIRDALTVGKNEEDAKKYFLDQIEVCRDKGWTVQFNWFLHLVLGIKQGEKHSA
In short: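 Reactions in 5 mM HEPES pH 7, 2.5 mM MgCl2, 25 μM ATP with 2.5 μM diC8-PI(4,5)P2 and 5 ng enzyme, 1 h at 25° C, then EDTA quench. Product detected by FP using GST-GRP1 PH domain (100 nM) and BODIPY-TMR-IP4 tracer (5 nM); final DMSO 0.8%.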

| SMILES | IC50 (human TOR) | IC50 (PI3K-alpha) | IC50 (PI3K-gamma) |
| --- | --- | --- | --- |
| CNC(=O)Nc1ccc2c(c1)C(=O)/C(=C/c1c(-c3c(C)nn(C)c3C)[nH]c3c(C(F)(F)F)cc(OC)cc13)O2 [Compound 725, 1-[(2Z)-2-{[5-methoxy-7-(trifluoromethyl)-2-(1,3,5-trimethyl-1H-pyrazol-4-yl)-1H-indol-3-yl]methylidene}-3-oxo-2,3-dihydro-1-benzofuran-5-yl]-3-methylurea] | 530 nM | 13 nM | 74 nM |
| COc1ccc2c(c1)c(/C=C1\Oc3cc(O)c(Br)cc3C1=O)c(C)n2CCCN(C)C [Example 350, (2Z)-5-Bromo-2-({1-[3-(dimethylamino)propyl]-5-methoxy-2-methyl-1H-indol-3-yl}methylene)-6-hydroxy-1-benzofuran-3(2H)-one] | > 20000 nM | 114 nM | 6870 nM |
| Cn1cc(/C=C2\Oc3cc(O)cc(O)c3C2=O)c2c(-c3ccc(-c4ccc(CN)cc4)cc3)cccc21 [Example 300, (2Z)-2-({4-[4′-(Aminomethyl)biphenyl-4-yl]-1-methyl-1H-indol-3-yl}methylene)-4,6-dihydroxy-1-benzofuran-3(2H)-one] | 132 nM | 2860 nM | 9500 nM |
| CNC(=O)Nc1ccc2c(c1)C(=O)/C(=C/c1c(-c3cccc(CN(C)C)c3)[nH]c3ccc(OC)cc13)O2 [Compound 629, 1-{(2Z)-2-[(2-{3-[(dimethylamino)methyl]phenyl}-5-methoxy-1H-indol-3-yl)methylidene]-3-oxo-2,3-dihydro-1-benzofuran-5-yl}-3-methylurea] | 50 nM | 1.3 nM | 25.5 nM |
| CC(C)NC(=O)c1ccc(-c2cccc3c2c(/C=C2\Oc4cc(O)cc(O)c4C2=O)cn3C)cc1 [Example 395, 4-{3-[(Z)-(4,6-dihydroxy-3-oxo-1-benzofuran-2(3H)-ylidene)methyl]-1-methyl-1H-indol-4-yl}-N-isopropylbenzamide] | 95 nM | 582 nM | 3890 nM |
| COc1ccc2c(c1)c(/C=C1\Oc3cc(O)ccc3C1=O)c(C(=O)N1CCOCC1)n2CCN1CCN(C)CC1 [Example 412, (2Z)-6-Hydroxy-2-({5-methoxy-1-[2-(4-methylpiperazin-1-yl)ethyl]-2-(morpholin-4-ylcarbonyl)-1H-indol-3-yl}methylene)-1-benzofuran-3(2H)-one] | 2800 nM | 10.5 nM | 888 nM |
| Cn1cc(/C=C2\Oc3cccc(O)c3C2=O)c2ccccc21 [Example 441, (2Z)-4-Hydroxy-2-[(1-methyl-1H-indol-3-yl)methylene]benzofuran-3(2H)-one] | > 20000 nM | > 10000 nM | > 10000 nM |
| Cn1cc(/C=C2\Oc3cc(O)cc(O)c3C2=O)c2c(-c3ccc(NC(=O)NC4CC4)cc3)cccc21 [Example 401, 1-cyclopropyl-3-(4-{3-[(Z)-(4,6-dihydroxy-3-oxo-1-benzofuran-2(3H)-ylidene)methyl]-1-methyl-1H-indol-4-yl}phenyl)urea] | 61.5 nM | 267 nM | 2680 nM |
| COc1ccc2c(c1)c(/C=C1\Oc3cc(O)ccc3C1=O)c(C1CCCC1)n2CCN1CCN(C)CC1 [Example 411, (2Z)-2-({2-Cyclopentyl-5-methoxy-1-[2-(4-methylpiperazin-1-yl)ethyl]-1H-indol-3-yl}methylene)-6-hydroxy-1-benzofuran-3(2H)-one] | 47 nM | 11.5 nM | 984 nM |
| Cc1c(C=C2Oc3cc(O)cc(O)c3C2=O)c2cc(Cl)ccc2n1CCCC#N [Example 238, 4-{5-chloro-3-[(4,6-dihydroxy-3-oxo-1-benzofuran-2(3H)-ylidene)methyl]-2-methyl-1H-indol-1-yl}butanenitrile] | 360 nM | 288 nM | 2820 nM |
| COc1ccc2c(c1)c(/C=C1\Oc3cc(O)c(Cl)cc3C1=O)c(C)n2CCCN(C)C [Example 448, (2Z)-5-Chloro-2-({1-[3-(dimethylamino)propyl]-5-methoxy-2-methyl-1H-indol-3-yl}methylene)-6-hydroxy-1-benzofuran-3(2H)-one] | > 20000 nM | 142 nM | 5130 nM |
| COc1ccc2c(c1)SC(=Cc1c[nH]c3ccc(OC)cc13)C2=O [Example 433, 6-Methoxy-2-[(5-methoxy-1H-indol-3-yl)methylene]-1-benzothiophen-3(2H)-one] | > 20000 nM | > 10000 nM | > 10000 nM |
| COC(=O)Nc1ccc(-c2cccc3c2c(/C=C2\Oc4cc(O)cc(O)c4C2=O)cn3C)cc1 [Example 391, Methyl (4-{3-[(Z)-(4,6-Dihydroxy-3-oxo-1-benzofuran-2(3H)-ylidene)methyl]-1-methyl-1H-indol-4-yl}phenyl)carbamate] | 38.5 nM | 1150 nM | 2390 nM |
| CC(=O)Nc1cccc(-c2cccc3c2c(/C=C2\Oc4cc(O)cc(O)c4C2=O)cn3C)c1 [Example 388, N-(3-{3-[(Z)-(4,6-Dihydroxy-3-oxo-1-benzofuran-2(3H)-ylidene)methyl]-1-methyl-1H-indol-4-yl}phenyl)acetamide] | 200 nM | 1350 nM | 3280 nM |
| CCn1c(C)c(/C=C2\Oc3ccc(NC(=O)Nc4ccc(CCCCN(C)C)cc4)cc3C2=O)c2cc(OC)ccc21 [Compound 663, 1-{4-[4-(dimethylamino)butyl]phenyl}-3-{(2Z)-2-[(1-ethyl-5-methoxy-2-methyl-1H-indol-3-yl)methylidene]-3-oxo-2,3-dihydro-1-benzofuran-5-yl}urea] | 710 nM | 5.73 nM | 42.3 nM |
| CNC(=O)Nc1ccc2c(c1)C(=O)/C(=C/c1c(-c3nc(C4CC4)no3)n(CCN3CCN(C)CC3)c3ccc(OC)cc13)O2 [Compound 626, 1-[(2Z)-2-({2-(3-cyclopropyl-1,2,4-oxadiazol-5-yl)-5-methoxy-1-[2-(4-methylpiperazin-1-yl)ethyl]-1H-indol-3-yl}methylidene)-3-oxo-2,3-dihydro-1-benzofuran-5-yl]-3-methylurea] | 66 nM | 3 nM | 470 nM |
| COc1ccc2c(c1)c(/C=C1\Oc3cc(NS(C)(=O)=O)ccc3C1=O)cn2CCCN(C)C [Example 422, N-(2Z)-[2-({1-[3-(Dimethylamino)propyl]-5-methoxy-1H-indol-3-yl}methylene)-3-oxo-2,3-dihydro-1-benzofuran-6-yl]methanesulfonamide] | > 20000 nM | 9000 nM | 7640 nM |
| COc1ccc2c(c1)c(/C=C1\Oc3cc(O)cc(F)c3C1=O)c(C)n2CCCN(C)C [Example 465, (2Z)-2-({1-[3-(Dimethylamino)propyl]-5-methoxy-2-methyl-1H-indol-3-yl}methylene)-4-fluoro-6-hydroxy-1-benzofuran-3(2H)-one] | > 20000 nM | 29.5 nM | 475 nM |
| COc1ccc2[nH]c(-c3c(C)nn(C)c3C)c(/C=C3\Oc4ccc(NC(=O)Nc5ccc(C(=O)N(C)CCN(C)C)cc5)cc4C3=O)c2c1 [Compound 682, N-[2-(dimethylamino)ethyl]-4-({[(2Z)-2-{[5-methoxy-2-(1,3,5-trimethyl-1H-pyrazol-4-yl)-1H-indol-3-yl]methylidene}-3-oxo-2,3-dihydro-1-benzofuran-5-yl]carbamoyl}amino)-N-methylbenzamide] | 1 nM | 0.3 nM | 1.98 nM |
| CNC(=O)Nc1ccc2c(c1)C(=O)/C(=C/c1c(-c3c(C)nn(C)c3C)n(CCN3CCN(C)CC3)c3ccc(OC)cc13)O2 [Compound 646, 1-[(2Z)-2-({5-methoxy-1-[2-(4-methylpiperazin-1-yl)ethyl]-2-(1,3,5-trimethyl-1H-pyrazol-4-yl)-1H-indol-3-yl}methylene)-3-oxo-2,3-dihydro-1-benzofuran-5-yl]-3-methylurea] | 13 nM | 2.5 nM | 68 nM |
| O=C(O)c1ccc2[nH]cc(C=C3Oc4cc(O)cc(O)c4C3=O)c2c1 [Example 165, 3-[(4,6-dihydroxy-3-oxo-1-benzofuran-2(3H)-ylidene)methyl]-1H-indole-5-carboxylic acid] | > 20000 nM | 9500 nM | > 10000 nM |
| CCn1c(-c2ccccc2)c(C=C2Oc3cc(O)cc(O)c3C2=O)c2ccccc21 [Example 213, 2-[(1-ethyl-2-phenyl-1H-indol-3-yl)methylene]-4,6-dihydroxy-1-benzofuran-3(2H)-one] | 170 nM | 770 nM | 2650 nM |
| CNC(=O)c1ccc(-c2cccc3c2c(/C=C2\Oc4cc(O)cc(O)c4C2=O)cn3C)cc1 [Example 392, 4-{3-[(Z)-(4,6-dihydroxy-3-oxo-1-benzofuran-2(3H)-ylidene)methyl]-1-methyl-1H-indol-4-yl}-N-methylbenzamide] | 17 nM | 453 nM | > 7180 nM |
| COc1ccc2c(c1)c(/C=C1\Oc3cc(N)ccc3C1=O)cn2CCCN(C)C [Example 418, (2Z)-6-amino-2-({1-[3-(dimethylamino)propyl]-5-methoxy-1H-indol-3-yl}methylene)-1-benzofuran-3(2H)-one] | 10300 nM | 1380 nM | 9500 nM |
| CNC(=O)Nc1ccc2c(c1)C(=O)/C(=C/c1c(-c3cnn(CC(C)C)c3)[nH]c3c(F)cc(OC)cc13)O2 [Compound 717, 1-[(2Z)-2-({7-fluoro-5-methoxy-2-[1-(2-methylpropyl)-1H-pyrazol-4-yl]-1H-indol-3-yl}methylidene)-3-oxo-2,3-dihydro-1-benzofuran-5-yl]-3-methylurea] | 7 nM | 2.65 nM | 8 nM |
